Assay results taken from PMC12096669, “Structural isomerisation affects the antitubercular activity of adamantyl-isoxyl adducts” (Journal of Enzyme Inhibition and Medicinal Chemistry, 2025).
Converted amounts (≈) assume the structure as drawn. Read-outs that look alike come from different tables or passages of the source.

How the values were obtained:
[1] = test system: Mtb mc^27092 pMV261-pks13; assay: microbe, parasite or virus in culture; type: cell-based; details: Mycobacterium tuberculosis, read-out: Mtb MIC95
[2] = test system: Mtb mc^27092 pMV261-hadABC; assay: microbe, parasite or virus in culture; type: cell-based; details: Mycobacterium tuberculosis, read-out: Mtb MIC95
[3] = test system: Mtb mc^28250 pMV261; assay: microbe, parasite or virus in culture; type: cell-based
[4] = test system: Mtb mc^27092 pMV261-desA3; assay: microbe, parasite or virus in culture; type: cell-based; details: Mycobacterium tuberculosis, read-out: Mtb MIC95
[5] = test system: Mtb mc^28256 pMV261; assay: microbe, parasite or virus in culture; type: cell-based; details: Mycobacterium tuberculosis, read-out: Mtb MIC95
[6] = test system: Mtb mc^28247 pMV261; assay: microbe, parasite or virus in culture; type: cell-based
[7] = test system: Mtb mc^28245 pMV261; assay: microbe, parasite or virus in culture; type: cell-based
[8] = test system: Mtb mc^27092 pMV261-mmpL3; assay: microbe, parasite or virus in culture; type: cell-based, Mycobacterium tuberculosis; details: for MIC: Mycobacterium tuberculosis, read-out: Mtb MIC95
[9] = test system: Mtb mc^27092 pMV261- ethA; assay: microbe, parasite or virus in culture; type: cell-based; details: Mycobacterium tuberculosis, read-out: Mtb MIC95
[10] = test system: M. smegmatis mc^2155 mmpL3 knockout strain expressing MmpL3-Mtb-G253E; design: method as in PMID 22344175; details: M. smegmatis mc^2155, MmpL3-Mtb-G253E in a mmpL3 knockout strain; cited from earlier work
[11] = Mycobacterium tuberculosis; read-out: Mtb MIC95
[12] = Mycobacterium tuberculosis, read-out: Mtb MIC95

SMILES	MIC ([1]; mc^27092 pMV261-pks13, REMA)	MIC ([2]; mc^27092 pMV261-hadABC, REMA)	MIC [3, 11]	MIC ([4]; mc^27092 pMV261-desA3, REMA)	MIC ([5]; mc^28256 pMV261, REMA)	MIC [6, 11]	MIC [7, 11]	MIC ([8]; mc^27092 pMV261-mmpL3, REMA)	MIC ([9]; mc^27092 pMV261- ethA, REMA)	MIC [1]	MIC [2]	MIC [3, 12]	MIC [4]	MIC [5]	MIC [6, 12]	MIC [7, 12]	MIC [8]	MIC [9]	increase in the resistance [10]	increase in resistance on overexpression of MmpL3 [8]
CC(C)CCOc1ccc(NC(=S)NC23CC4CC(CC(C4)C2)C3)cc1 [Ad-1-ISO, 1-((3s,5s,7s)-adamantan-1-yl)-3–(4-(isopentyloxy)phenyl)thiourea]	1.11 µg/mL (≈ 2.98 µM)	1.09 µg/mL (≈ 2.93 µM)	1.12 µg/mL (≈ 3.01 µM)	1.07 µg/mL (≈ 2.87 µM)	1.13 µg/mL (≈ 3.03 µM)	1.08 µg/mL (≈ 2.9 µM)	1.11 µg/mL (≈ 2.98 µM)	1.16 µg/mL (≈ 3.11 µM)	1.2 µg/mL (≈ 3.22 µM)											
CC(=O)NC[C@H]1CN(c2ccc(N3CCOCC3)c(F)c2)C(=O)O1 [LZD, linezolid]	0.93 µg/mL (≈ 2.76 µM)	0.72 µg/mL (≈ 2.13 µM)	0.77 µg/mL (≈ 2.28 µM)		0.66 µg/mL (≈ 1.96 µM)	0.88 µg/mL (≈ 2.61 µM)	0.9 µg/mL (≈ 2.67 µM)	0.86 µg/mL (≈ 2.55 µM)												
NNC(=O)c1ccncc1 [INH, isoniazid]	0.04 µg/mL (≈ 0.292 µM)	0.04 µg/mL (≈ 0.292 µM)		0.04 µg/mL (≈ 0.292 µM)		0.04 µg/mL (≈ 0.292 µM)		0.04 µg/mL (≈ 0.292 µM)	0.04 µg/mL (≈ 0.292 µM)											
CCc1cc(C(N)=S)ccn1 [ETH, ethionamide]										1.01 µg/mL (≈ 6.08 µM)	2.02 µg/mL (≈ 12.2 µM)	1.02 µg/mL (≈ 6.14 µM)	1.02 µg/mL (≈ 6.14 µM)	1.08 µg/mL (≈ 6.5 µM)	0.98 µg/mL (≈ 5.89 µM)	0.98 µg/mL (≈ 5.89 µM)	0.99 µg/mL (≈ 5.95 µM)	0.65 µg/mL (≈ 3.91 µM)		
CC(C)=CCC/C(C)=C/CNCCNC1C2CC3CC(C2)CC1C3 (stereo not shown) [SQ109, N-Adamantan-2-yl-N’-((E)-3,7-dimethylocta-2,6-dienyl)ethane-1,2-diamine]	0.31 µg/mL (≈ 0.938 µM)	0.31 µg/mL (≈ 0.938 µM)	0.3 µg/mL (≈ 0.908 µM)		0.27 µg/mL (≈ 0.817 µM)	0.3 µg/mL (≈ 0.908 µM)	0.31 µg/mL (≈ 0.938 µM)	0.74 µg/mL (≈ 2.24 µM)												
CC[C@@H](CO)NCCN[C@@H](CC)CO [EMB, Ethambutol]	2 µg/mL (≈ 9.79 µM)	2.54 µg/mL (≈ 12.4 µM)	1.89 µg/mL (≈ 9.25 µM)	2.95 µg/mL (≈ 14.4 µM)	1.88 µg/mL (≈ 9.2 µM)	1.97 µg/mL (≈ 9.64 µM)	1.82 µg/mL (≈ 8.91 µM)	2.02 µg/mL (≈ 9.89 µM)	2.09 µg/mL (≈ 10.2 µM)											
O=C(Nc1ccc(F)c(F)c1F)NC1C2CC3CC(C2)CC1C3 (stereo not shown) [AU1235]																			2 fold	
CC(C)CCOc1ccc(NC(=S)Nc2ccc(OCCC(C)C)cc2)cc1 [ISO, 4,4′-diisoamyloxydiphenylthiourea]	0.34 µg/mL (≈ 0.849 µM)	0.71 µg/mL (≈ 1.77 µM)	0.2 µg/mL (≈ 0.499 µM)	0.26 µg/mL (≈ 0.649 µM)	0.19 µg/mL (≈ 0.474 µM)	0.34 µg/mL (≈ 0.849 µM)	0.18 µg/mL (≈ 0.449 µM)	0.21 µg/mL (≈ 0.524 µM)	0.09 µg/mL (≈ 0.225 µM)											
CO[C@H]1/C=C/O[C@@]2(C)Oc3c(C)c(O)c4c(O)c(c(/C=N/N5CCN(C)CC5)c(O)c4c3C2=O)NC(=O)/C(C)=C\C=C\[C@H](C)[C@H](O)[C@@H](C)[C@@H](O)[C@@H](C)[C@H](OC(C)=O)[C@@H]1C [RIF, rifampicin]	0.06 µg/mL (≈ 0.0729 µM)	0.06 µg/mL (≈ 0.0729 µM)		0.06 µg/mL (≈ 0.0729 µM)			0.05 µg/mL (≈ 0.0608 µM)	0.06 µg/mL (≈ 0.0729 µM)	0.06 µg/mL (≈ 0.0729 µM)											
CC(C)CCOc1ccc(NC(=S)NC2C3CC4CC(C3)CC2C4)cc1 (stereo not shown) [Ad-2-ISO, 1-((1r,3r,5r,7r)-adamantan-2-yl)-3–(4-(isopentyloxy)phenyl)thiourea]	3.37 µg/mL (≈ 9.05 µM)	4.34 µg/mL (≈ 11.6 µM)	3.1 µg/mL (≈ 8.32 µM)	2.93 µg/mL (≈ 7.86 µM)	2.9 µg/mL (≈ 7.78 µM)	2.5 µg/mL (≈ 6.71 µM)	3.55 µg/mL (≈ 9.53 µM)	4.2 µg/mL (≈ 11.3 µM)	2.63 µg/mL (≈ 7.06 µM)											~2 fold
